According to patent US8551742B2 (priority 2007, dated 2013):
In brackets after ≈: the same amount, converted by molar mass.

T1: SAMe transporter from S. cerevisiae (Saccharomyces cerevisiae, UniProt Q08986)
T1 sequence (Q08986 1-587): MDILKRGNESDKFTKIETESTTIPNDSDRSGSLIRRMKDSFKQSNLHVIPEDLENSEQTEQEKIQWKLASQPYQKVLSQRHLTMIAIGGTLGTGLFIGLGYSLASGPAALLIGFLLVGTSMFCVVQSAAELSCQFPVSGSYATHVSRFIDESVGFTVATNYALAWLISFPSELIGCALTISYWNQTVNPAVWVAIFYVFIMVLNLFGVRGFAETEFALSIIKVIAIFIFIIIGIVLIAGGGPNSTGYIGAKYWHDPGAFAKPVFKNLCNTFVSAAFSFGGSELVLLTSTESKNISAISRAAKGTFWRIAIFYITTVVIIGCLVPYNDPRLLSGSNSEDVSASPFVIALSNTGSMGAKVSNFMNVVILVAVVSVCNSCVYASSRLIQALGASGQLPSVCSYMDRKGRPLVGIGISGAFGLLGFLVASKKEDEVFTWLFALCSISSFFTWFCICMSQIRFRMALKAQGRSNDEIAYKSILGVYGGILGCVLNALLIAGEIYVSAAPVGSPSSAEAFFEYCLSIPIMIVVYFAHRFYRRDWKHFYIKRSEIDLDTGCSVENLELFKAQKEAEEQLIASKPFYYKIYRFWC

B1: Val 185 Glu: E. coli MetK mutant, C-terminal His tagged, purified (protein, UniProt P0A817 2-384, looked up, variant V185E)
S-adenosylmethionine synthase: AKHLFTSESVSEGHPDKIADQISDAVLDAILEQDPKARVACETYVKTGMVLVGGEITTSAWVDIEEITRNTVREIGYVHSDMGFDANSCAVLSAIGKQSPDINQGVDRADPLEQGAGDQGLMFGYATNETDVLMPAPITYAHRLVQRQAEVRKNGTLPWLRPDAKSQVTFQYDDGKIVGIDAVELSTQHSEEIDQKSLQEAVMEEIIKPILPAEWLTSATKFFINPTGRFVIGGPMGDCGLTGRKIIVDTYGGMARHGGGAFSGKDPSKVDRSAAYAARYVAKNIVAAGLADRCEIQVSYAIGVAEPTSIMVETFGTEKVPSEQLTLLVREFFDLRPYGLIQMLDLLHPIYKETAAYGHFGREHFPWEKTDKAQLLRDAAGLK
modifications: C-terminal His tag
notes: E. coli MetK mutant, C-terminal His tagged, purified

What was measured:
[1] = 30° C.; cited from earlier work
[2] = biological target: high affinity L-methionine transporter (metD) (Escherichia coli, UniProt P28635); details: very high affinity transporter in E. coli; cited from earlier work
Chain of high affinity L-methionine transporter (metD) (P28635 23-271): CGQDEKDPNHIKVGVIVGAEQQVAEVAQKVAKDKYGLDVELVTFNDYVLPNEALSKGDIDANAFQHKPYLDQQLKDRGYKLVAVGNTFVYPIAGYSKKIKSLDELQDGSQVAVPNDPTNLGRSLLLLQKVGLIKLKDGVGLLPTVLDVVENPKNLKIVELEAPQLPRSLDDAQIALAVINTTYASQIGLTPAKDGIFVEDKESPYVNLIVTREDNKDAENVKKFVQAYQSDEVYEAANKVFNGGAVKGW
Chain of high affinity L-methionine transporter (metD) (P30750 whole entry, further chain): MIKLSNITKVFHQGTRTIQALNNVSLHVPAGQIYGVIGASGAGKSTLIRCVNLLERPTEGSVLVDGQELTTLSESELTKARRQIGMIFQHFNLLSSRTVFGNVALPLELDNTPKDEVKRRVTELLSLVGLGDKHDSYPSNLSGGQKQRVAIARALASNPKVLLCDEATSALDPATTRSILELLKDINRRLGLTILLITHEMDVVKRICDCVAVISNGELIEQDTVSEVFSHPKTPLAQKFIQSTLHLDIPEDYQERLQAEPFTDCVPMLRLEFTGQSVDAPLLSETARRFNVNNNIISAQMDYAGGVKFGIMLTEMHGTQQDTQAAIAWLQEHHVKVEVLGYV
Chain of high affinity L-methionine transporter (metD) (P31547 whole entry, further chain): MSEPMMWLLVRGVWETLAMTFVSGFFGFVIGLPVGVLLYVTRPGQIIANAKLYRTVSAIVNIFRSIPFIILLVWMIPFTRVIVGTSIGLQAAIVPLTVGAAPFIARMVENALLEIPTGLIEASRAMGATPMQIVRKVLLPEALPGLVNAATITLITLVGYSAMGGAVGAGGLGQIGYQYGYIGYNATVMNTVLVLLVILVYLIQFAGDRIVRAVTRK

[3] = system: lower affinity L-methionine transporter (metP); details: lower affinity transporter in E. coli; cited from earlier work
physchem = details: 30 °C, water
Text: This is close to the highest concentration achievable in the assay conditions.

[4] = system: homocysteine synthase encoded by metY from Pseudomonas aeruginosa; assay: Homocysteine synthase (MetY) activity assay (Yamagata, modified, DTNB detection)
[5] = system: SAMe transporter from P. carnii; details: cited from earlier work
[6] = biological target: T1, SAMe transporter from S. cerevisiae; details: cited from earlier work
[7] = system: SAMe transporter from rat liver; details: cited from earlier work
[8] = biological target: Rickettsia high-affinity SAMe transport system (Rickettsia prowazekii, UniProt Q9ZE70); details: Rickettsia SAMe transporter; cited from earlier work
Chain of Rickettsia high-affinity SAMe transport system (Q9ZE70 whole entry, looked up): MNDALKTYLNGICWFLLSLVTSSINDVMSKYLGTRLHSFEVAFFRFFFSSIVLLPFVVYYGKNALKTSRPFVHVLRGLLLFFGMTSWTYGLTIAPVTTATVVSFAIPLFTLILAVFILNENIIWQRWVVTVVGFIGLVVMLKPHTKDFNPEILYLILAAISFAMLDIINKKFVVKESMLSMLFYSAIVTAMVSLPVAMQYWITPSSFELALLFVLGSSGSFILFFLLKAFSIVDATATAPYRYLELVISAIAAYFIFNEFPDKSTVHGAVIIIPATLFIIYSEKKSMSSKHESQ

MetK = MetK mutants radioactive assay in vitro ([methyl-14C]methionine to SAMe); assay type: biochemical, E. coli; details: 5 minute reaction time; C-terminal His tagged proteins unless untagged
Description: The metK gene from E. coli (Accession number AP—003499 or BAE77005) was cloned and overexpressed with either an N-terminal or a C-terminal His tag in pET28b vector. Site directed mutagenesis was performed using the C-terminal His tagged metK clone to generate the desired mutants. Expression of the mutant MetK proteins was confirmed.
The MetK mutants were purified (using the C-terminal His tag) and assayed in vitro. The wild type C-terminal His-tagged MetK protein was used as a control. The mutants were assayed using a radioactive assay. The assay conditions were as follows: • Assay Mix: • 1.0 mL 0.5 M HEPES/KOH, pH 8.0 • 0.5 mL 1.0 M KCl • 0.2 mL 1.0 M MgCl2 • 1.0 mL 100 mM ATP (disodium salt, pH 8.0 with KOH) • 0.1 mL 50 mM methionine • 0.1 mL NEN [methyl-^14C]methionine • 6.6 mL H2O • 25 mM EDTA pH 8.0 stop for assays.
45 μl of assay mix was added to an Eppendorf tube and 5 μL of enzyme (normalized data shown in Table 13. The reaction was incubated at room temperature (or 25° C.) for a desired period (1 to 10 minutes). The reaction was stopped with the addition of 150 μL of 25 mM EDTA. 100 μL of the reaction was spotted onto a 2.5 cm diameter Whatman P-81 phosphocellulose filter circle (labeled in pencil). The filters were washed with 3 L of distilled water, air-dried and placed in scintillation vials with aquasol. The emissions were counted using a window that extends from ^14C to about 0. Assay efficiency and quench levels were determined by adding a known amount of counts of pure ^14C-SAM and processing through the whole procedure. Backgrounds are typically<100 cpm (total counts ca. 10^5 cpm per reaction).

excreted Met = details: literature reference AEM 2005; cited from earlier work
[9] = OAHS as substrate, 10 mM inhibitor

Row | Molecule | solubility in water [1] [g/100 mL] | Km [2] [µM] | Km [3] [µM] | solubility (physchem) [µM] | inhibition of MetY ([4]; 1 mM methionine) | activity retained relative to absence of inhibitor [4, 9] | activity retained relative to absence of inhibitor ([4]; OAHS as substrate, 50 mM inhibitor) [%] | activity retained relative to absence of inhibitor ([4]; OAHS as substrate, 100 mM inhibitor) [%] | activity retained relative to absence of inhibitor ([4]; OSHS as substrate, 50 mM inhibitor) [%] | activity retained relative to absence of inhibitor ([4]; OSHS as substrate, 100 mM inhibitor) [%] | KT [5] [µM] | KT [6] [µM] | KT [7] [µM] | KT [8] [µM] | activity retained relative to absence of inhibitor ([4]; OAHS as substrate, 5 mM inhibitor) | activity retained relative to absence of inhibitor ([4]; OSHS as substrate, 5 mM inhibitor) [%] | activity retained relative to absence of inhibitor ([4]; OSHS as substrate, 10 mM inhibitor) [%] | Activity (CPM SAMe/ μg purified protein/min) (MetK) | Expected Effect: increase in excreted Met over control (excreted Met) [X increase in]
1 | CSCC[C@H](N)C(=O)O [methionine] | 5.6 | 0.1 to 0.13 | 20 to 40 | 375000 (≈ 56 mg/mL) | Some inhibition | about 50% | ~19 | ~9 | 53 | 31 |  |  |  |  |  |  |  |  | 
2 | C[S+](CC[C@H](N)C(=O)O)C[C@H]1O[C@@H](n2cnc3c(N)ncnc32)[C@H](O)[C@@H]1O (some centres unmarked) [SAMe, S-adenosylmethionine] |  |  |  |  |  | ~21% |  |  |  |  | 4.5 | 3.3 | 8.9 | 2 to 8 | approximately 72% | 86 | 19 |  | 
3 | B1 |  |  |  |  |  |  |  |  |  |  |  |  |  |  |  |  |  | 4.9 CPM SAMe/ μg purified protein/min | 6.4
